Legend:
[1] = test system: differentiated neuronal cell line HCN-2; test: Toxicity on differentiated neuronal cell line HCN-2; type: cell-based, human; conditions: HCN-2 differentiated 12 days; for reduction (non-significant): highest soluble concentration, not a significant reduction
Description: FIG. 3. The compounds were tested on a differentiated neuronal cell line (9) HCN-2, obtained from ATCC. Cells were seeded at 5,000 cells per well using a low passage, second passage of cells to ensure cell stability. Cells were then subjected to induced differentiation, at 72 hours, with a differentiating concoction composed of 25 ng/mL NGF-beta-human, 0.05 mM dibutyryl cAMP and 0.5 mM IBMX in 10% DMEM, all differentiating factors were obtained from Sigma Aldrich (9). Cells were treated with differentiating factor for 12 days to ensure that cells differentiated into neuronal cells. On the twelfth day, cells were treated with and without drugs at the highest soluble concentration to determine the activity of the compounds on neuronal cells.
The compounds were also tested on a differentiated neuronal cell line, HCN-2, obtained from ATCC (FIG. 3).

[2] = test system: T-cell lymphoma cells line (Jurkat cells); test: Jurkat T-cell lymphoma cell survival (presto blue), 48 hours post treatment; type: cell-based
Description: FIG. 2. The compounds were tested against T-cell lymphoma cells line (Jurkat cells) obtained from ATCC and were tested against APAP and its derivatives at various concentrations with 0.2% DMSO as a vehicle. Free flowing cells were seeded at 3500 cells and allowed 48 hours to stabilize before treatment. Drugs were administered to both seeded wells and wells that that were designated blank, without cells. This additional step was added in order to account for the effects of the drugs on the reagent used for analysis. Data for cell survival, using presto blue, was analyzed at 48 hours post treatment.
The effects of the drugs on lymphoma cells were tested on Jurkat cells, as described above and in FIG. 2.

[3] = test system: U87MG cells, stage IV astrocytoma; test: U87MG cell survival (presto blue), 48 hours post treatment; type: cell-based
Description: (§1) FIG. 1. U87MG cells, stage IV astrocytoma obtained from ATCC, were tested against APAP and its derivatives at various concentrations with 0.2% DMSO as a vehicle. Cells were seeded at 3500 cells and allowed 48 hours to stabilize before treatment. Drugs were administered and data for cell survival, using presto blue, were analyzed at 48 hours post treatment.
as §1, with “U87MG” for “FIG. 1. U87MG”, “concentration” for “concentrations”, “vehicle (FIG. 1).” for “vehicle.”

malignant astrocytes = conditions: cell culture method, Casper et al. (6); cited from earlier work

CCCCCCCCC(=O)Nc1ccc(O)cc1 [PL9, N-(4-hydroxyphenyl)nonanamide]
toxicity on neuronal cells ([1]; highest concentration 0.25 mM): toxicity | melting point: 119 °C

CCCCCCCCCCCC(=O)Nc1ccc(O)cc1 [PL12, N-(4-hydroxyphenyl)dodecanamide]
melting point: 128 °C

CCCCCCCCCCCCCCCC(=O)Nc1ccc(O)cc1 [PL16, N-(4-Hydroxyphenyl)hexadecanamide]
melting point: 131 °C

O=C(Nc1ccc(O)cc1)c1ccccc1 [PL5B, N-(4-hydroxyphenyl)benzamide]
melting point: 217 to 218 °C

CCCCCCCCCC(=O)Nc1ccc(O)cc1 [PL10, N-(4-hydroxyphenyl)decanamide]
activity when compared to APAP ([2]; 0.125 mM): greatest activity | reduction (non-significant) [1]: 35.6% | melting point: 124 °C

CC(C)C(=O)Nc1ccc(O)cc1 [PL4, N-(4-hydroxyphenyl)-2-methylpropanamide]
melting point: 160 to 162 °C

O=C(Nc1ccc(O)cc1)c1ccc2ccccc2c1 [PL11]
reduction in cell growth ([3]; 0.25 mM): 87.5% | reduction (non-significant) [1]: 35.6%

CC(=O)Nc1ccc(O)cc1 [APAP, N-(4-Hydroxyphenyl)acetamide, reference compound]
reduction in cell growth as compared to control 0.2% DMSO ([3]; 2 mM): 36% | reduction in cell growth as compared to control 0.2% DMSO ([2]; 2 mM): 16% | ability to reduce the growth of malignant astrocytes (malignant astrocytes): only mild

CCCCCCC(=O)Nc1ccc(O)cc1 [PL7, N-(4-hydroxyphenyl)heptanamide]
activity (cell survival) in words ([3]; 0.5 mM): greatest activity | toxicity on neuronal cells ([1]; highest concentration 0.5 mM): toxicity | melting point: 109 °C

CCCCCCCC(=O)Nc1ccc(O)cc1 [PL8, N-(4-hydroxyphenyl)octanamide]
activity (cell survival) in words ([3]; 0.25 mM): greatest activity | toxicity on neuronal cells ([1]; highest concentration 0.5 mM): toxicity | melting point: 120 °C

CCCCCC(=O)Nc1ccc(O)cc1 [PL6, N-(4-hydroxyphenyl)hexanamide]
melting point: 110 °C

— US20210332001A1, “SYNTHESIS AND ANTI-TUMOR ACTIVITIES OF ACYL-PARA-AMINOPHENOL DERIVATIVES” (Montefiore Medical Center, priority 2018, published 2021)
